# Source: patent US20100280010A1, “CHEMICAL COMPOUNDS” (priority 2006, published 2010)
# Tested on: HIV-1 (Ba-L or IIIB) infection of HOS cell line (expressing hCXCR4/hCCR5/hCD4/pHIV-LTR-luciferase)
# Experiment: HOS HIV-1 Infectivity Assay
# Assay type: cell-based
# Conditions: Human immunodeficiency virus 1, HOS, virus strain not given, read-out: Activity Level
# Protocol: Compounds were profiled against two HIV-1 viruses, the M-tropic (CCR5 utilizing) Ba-L strain and the T-tropic (CXCR4 utilizing) IIIB strain. Ba-L was propagated in either peripheral blood lymphocytes or SupT1/CCR5+/CXCR4+ cells. IIIB was propagated in peripheral blood lymphocytes. Compounds were tested for their ability to block infection of the HOS cell line (expressing hCXCR4/hCCR5/hCD4/pHIV-LTR-luciferase) by either HIV-1 Ba-L or HIV-1 IIIB. Compound cytotoxicity was also examined in the absence of virus addition.
# HOS cells (expressing hCXCR4/hCCR5/hCD4/pHIV-LTR-luciferase) were harvested and diluted in Dulbeccos modified Eagles media supplemented with 2% FCS to a concentration of 120,000 cells/ml. The cells were plated into 96-well plates (50 μl per well) and the plates were placed in a tissue culture incubator ([…]; 5% CO2195% air) for a period of 24 h.
# Subsequently, 50 μl of the desired drug solution (2 times the final concentration) was added to each well and the plates were returned to the tissue culture incubator (370° C.; 5% CO2/95% air) for 1 h. Following this incubation, 60 μl of diluted virus (4 times the final concentration) was added to 60 μl of 2× the final desired concentration of the compound and 100 μl of this compound/virus mix was added to each well (approximately 2 million RLU per well of virus). The plates were returned to the tissue culture incubator (370° C.; 5% CO2/95% air) and were incubated for a further 96 h.
# Following this incubation the endpoint for the virally infected cultures was quantified following addition of Steady-Glo Luciferase assay system reagent (Promega, Madison, Wis.). Cell viability or non-infected cultures was measured using a CellTiter-Glo luminescent cell viability assay system (Promega, Madison, Wis.). All luminescent readouts are performed on a Topcount luminescence detector (Packard, Meridien, Conn.).
row,Structure (SMILES),IC50
1,"CC(C)N(Cc1nc2cccc(N3CCC(N(C)C)CC3)n2c1C#N)[C@H]1CCCc2cccnc21 [Example 70, 5-[4-(dimethylamino)-1-piperidinyl]-2-({(1-methylethyl)[(8S)-5,6,7,8-tetrahydro-8-quinolinyl]amino}methyl)imidazo[1,2-a]pyridine-3-carbonitrile]",< 100 nM
2,"CC(C)N(Cc1nc2cccc(N3CCC(N(C)C)CC3)n2c1C(N)=O)[C@H]1CCCc2cccnc21 [Example 71, 5-[4-(dimethylamino)-1-piperidinyl]-2-({(1-methylethyl)[(8S)-5,6,7,8-tetrahydro-8-quinolinyl]amino}methyl)imidazo[1,2-a]pyridine-3-carboxamide]",< 100 nM
3,"CN1CCN(c2cccc3nc(CN(C)[C@H]4CCCc5cccnc54)c(Cl)n23)CC1 [Example 72, (8S)—N-{[3-Chloro-5-(4-methyl-1-piperazinyl)imidazo[1,2-a]pyridin-2-yl]methyl}-N-methyl-5,6,7,8-tetrahydro-8-quinolinamine]",< 100 nM
4,"CCN1CCN(c2cccc3nc(CN(C)[C@H]4CCCc5cccnc54)c(Cl)n23)CC1 [Example 73, (8S)—N-{[3-Chloro-5-(4-ethyl-1-piperazinyl)imidazo[1,2-a]pyridin-2-yl]methyl}-N-methyl-5,6,7,8-tetrahydro-8-quinolinamine]",< 100 nM
5,"CN(C)[C@@H]1CCN(c2cccc3nc(CN(C)[C@H]4CCCc5cccnc54)c(Cl)n23)C1 [Example 74, (8S)—N-({3-Chloro-5-[(3R)-3-(dimethylamino)-1-pyrrolidinyl]imidazo[1,2-a]pyridin-2-yl}methyl)-N-methyl-5,6,7,8-tetrahydro-8-quinolinamine]",< 100 nM
6,"CN(C)C1CCN(c2cccc3nc(CN(C)[C@H]4CCCc5cccnc54)c(Cl)n23)CC1 [Example 75, (8S)—N-({3-Chloro-5-[4-(dimethylamino)-1-piperidinyl]imidazo[1,2-a]pyridin-2-yl}methyl)-N-methyl-5,6,7,8-tetrahydro-8-quinolinamine]",< 100 nM
7,"CN1CCCN(c2cccc3nc(CN(C)[C@H]4CCCc5cccnc54)c(Cl)n23)CC1 [Example 76, (8S)—N-{[3-Chloro-5-(4-methylhexahydro-1H-1,4-diazepin-1-yl)imidazo[1,2-a]pyridin-2-yl]methyl}-N-methyl-5,6,7,8-tetrahydro-8-quinolinamine]",< 100 nM
8,"CN(C)CCN(C)c1cccc2nc(CN(C)[C@H]3CCCc4cccnc43)c(Cl)n12 [Example 77, N-[3-Chloro-2-({methyl[(8S)-5,6,7,8-tetrahydro-8-quinolinyl]amino}methyl)imidazo[1,2-a]pyridin-5-yl]-N,N′,N′-trimethyl-1,2-ethanediamine]",< 100 nM
9,"C[C@H]1CN(c2cccc3nc(CN(C)[C@H]4CCCc5cccnc54)c(Cl)n23)CCN1 [Example 78, (8S)—N-({3-Chloro-5-[(3S)-3-methyl-1-piperazinyl]imidazo[1,2-a]pyridin-2-yl}methyl)-N-methyl-5,6,7,8-tetrahydro-8-quinolinamine]",< 100 nM
10,"C[C@H]1CN(c2cccc3nc(CN(C)[C@H]4CCCc5cccnc54)c(Cl)n23)CCN1C [Example 79, (8S)—N-([3-Chloro-5-[(3S)-3,4-dimethyl-1-piperazinyl]imidazo[1,2-a]pyridin-2-yl]methyl)-N-methyl-5,6,7,8-tetrahydro-8-quinolinamine]",< 100 nM
11,"CC(C)N1CCN(c2cccc3nc(CN(C)[C@H]4CCCc5cccnc54)c(Cl)n23)CC1 [Example 80, (8S)—N-({3-Chloro-5-[4-(1-methylethyl)-1-piperazinyl]imidazo[1,2-a]pyridin-2-yl}methyl)-N-methyl-5,6,7,8-tetrahydro-8-quinolinamine]",< 100 nM
12,"CN(Cc1nc2cccc(N3CCN4CCC[C@H]4C3)n2c1Cl)[C@H]1CCCc2cccnc21 [Example 81, (8S)—N-({3-Chloro-5-[(8aS)-hexahydropyrrolo[1,2-a]pyrazin-2(1H)-yl]imidazo[1,2-a]pyridin-2-yl}methyl)-N-methyl-5,6,7,8-tetrahydro-8-quinolinamine]",< 100 nM
13,"CCCN(Cc1nc2cccc(N3CCN(C)CC3)n2c1Cl)[C@H]1CCCc2cccnc21 [Example 82, (8S)—N-{[3-Chloro-5-(4-methyl-1-piperazinyl)imidazo[1,2-a]pyridin-2-yl]methyl}-N-propyl-5,6,7,8-tetrahydro-8-quinolinamine]",< 100 nM
14,"CCCN(Cc1nc2cccc(N3CCN(CC)CC3)n2c1Cl)[C@H]1CCCc2cccnc21 [Example 83, (8S)—N-{[3-Chloro-5-(4-ethyl-1-piperazinyl)imidazo[1,2-a]pyridin-2-yl]methyl}-N-propyl-5,6,7,8-tetrahydro-8-quinolinamine]",< 100 nM
15,"CCCN(Cc1nc2cccc(N3CCCN(C)CC3)n2c1Cl)[C@H]1CCCc2cccnc21 [Example 84, (8S)—N-{[3-Chloro-5-(4-methylhexahydro-1H-1,4-diazepin-1-yl)imidazo[1,2-a]pyridin-2-yl]methyl}-N-propyl-5,6,7,8-tetrahydro-8-quinolinamine]",< 100 nM
16,"CCCN(Cc1nc2cccc(N3CCN(C(C)C)CC3)n2c1Cl)[C@H]1CCCc2cccnc21 [Example 85, (8S)—N-({3-Chloro-5-[4-(1-methylethyl)-1-piperazinyl]imidazo[1,2-a]pyridin-2-yl}methyl)-N-propyl-5,6,7,8-tetrahydro-8-quinolinamine]",< 100 nM
17,"CCCN(Cc1nc2cccc(N3CC[C@@H](N(C)C)C3)n2c1Cl)[C@H]1CCCc2cccnc21 [Example 86, (8S)—N-({3-Chloro-5-[(3R)-3-(dimethylamino)-1-pyrrolidinyl]imidazo[1,2-a]pyridin-2-yl}methyl)-N-propyl-5,6,7,8-tetrahydro-8-quinolinamine]",< 100 nM
18,"CCCN(Cc1nc2cccc(N3CCC(N(C)C)CC3)n2c1Cl)[C@H]1CCCc2cccnc21 [Example 87, (8S)—N-({3-Chloro-5-[4-(dimethylamino)-1-piperidinyl]imidazo[1,2-a]pyridin-2-yl}methyl)-N-propyl-5,6,7,8-tetrahydro-8-quinolinamine]",< 100 nM
19,"CCCN(Cc1nc2cccc(N3CCN[C@@H](C)C3)n2c1Cl)[C@H]1CCCc2cccnc21 [Example 88, (8S)—N-({3-Chloro-5-[(3S)-3-methyl-1-piperazinyl]imidazo[1,2-a]pyridin-2-yl}methyl)-N-propyl-5,6,7,8-tetrahydro-8-quinolinamine]",< 100 nM
20,"CCCN(Cc1nc2cccc(N(C)CCN(C)C)n2c1Cl)[C@H]1CCCc2cccnc21 [Example 89, N-[3-Chloro-2-({propyl[(8S)-5,6,7,8-tetrahydro-8-Quinolinyl]amino}methyl)imidazo[1,2-a]pyridin-5-yl]-N,N′,N′-trimethyl-1,2-ethanediamine]",< 100 nM
21,"CCCN(Cc1cn2c(N3CCN(C)CC3)ccc(F)c2n1)[C@H]1CCCc2cccnc21 [Example 90, (8S)—N-{[8-Fluoro-5-(4-methyl-1-piperazinyl)imidazo[1,2-a]pyridin-2-yl]methyl}-N-propyl-5,6,7,8-tetrahydro-8-quinolinamine]",< 100 nM
